Experimental data taken from the supplement of paper PMC11451515.

Test system: NOMO1
Test: cell viability relative to DMSO control; higher = less cytotoxic
Details: 48 h
Procedure, shortened: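 Library compounds in DMSO were pin-dosed into 1536-well plates (5 μl) holding NOMO1 or SEM (500 cells/well) or P12-Ichikawa (1000 cells/well) leukemia cells, across an 11-point threefold series of 47 μM to 0.79 nM. Each cell line had been adapted for at least four passages in each medium. CellTiter-Glo One luminescence was read after 48 h at 37°C. Viability is the per-plate percentage relative to DMSO wells, with cell-free wells as background.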

[1] = HPLM + 10% dialyzed FBS, 0.000781 µM
[2] = HPLM + 10% dialyzed FBS, 0.00234 µM
[3] = HPLM + 10% dialyzed FBS, 0.00702 µM
[4] = HPLM + 10% dialyzed FBS, 0.0211 µM
[5] = HPLM + 10% dialyzed FBS, 0.0632 µM
[6] = HPLM + 10% dialyzed FBS, 0.19 µM
[7] = HPLM + 10% dialyzed FBS, 0.569 µM
[8] = HPLM + 10% dialyzed FBS, 1.71 µM
[9] = HPLM + 10% dialyzed FBS, 5.12 µM
[10] = HPLM + 10% dialyzed FBS, 15.4 µM
[11] = HPLM + 10% dialyzed FBS, 46.1 µM
[12] = RPMI 5 mM glucose + 10% FBS, 0.000781 µM
[13] = RPMI 5 mM glucose + 10% FBS, 0.00234 µM
[14] = RPMI 5 mM glucose + 10% FBS, 0.00702 µM
[15] = RPMI 5 mM glucose + 10% FBS, 0.0211 µM
[16] = RPMI 5 mM glucose + 10% FBS, 0.0632 µM
[17] = RPMI 5 mM glucose + 10% FBS, 0.19 µM
[18] = RPMI 5 mM glucose + 10% FBS, 0.569 µM
[19] = RPMI 5 mM glucose + 10% FBS, 1.71 µM
[20] = RPMI 5 mM glucose + 10% FBS, 5.12 µM
[21] = RPMI 5 mM glucose + 10% FBS, 15.4 µM
[22] = RPMI 5 mM glucose + 10% FBS, 46.1 µM
[23] = RPMI 5 mM glucose + 10% dialyzed FBS, 0.000781 µM
[24] = RPMI 5 mM glucose + 10% dialyzed FBS, 0.00234 µM
[25] = RPMI 5 mM glucose + 10% dialyzed FBS, 0.00702 µM
[26] = RPMI 5 mM glucose + 10% dialyzed FBS, 0.0211 µM
[27] = RPMI 5 mM glucose + 10% dialyzed FBS, 0.0632 µM
[28] = RPMI 5 mM glucose + 10% dialyzed FBS, 0.19 µM
[29] = RPMI 5 mM glucose + 10% dialyzed FBS, 0.569 µM
[30] = RPMI 5 mM glucose + 10% dialyzed FBS, 1.71 µM
[31] = RPMI 5 mM glucose + 10% dialyzed FBS, 5.12 µM
[32] = RPMI 5 mM glucose + 10% dialyzed FBS, 15.4 µM
[33] = RPMI 5 mM glucose + 10% dialyzed FBS, 46.1 µM

| SMILES | cell viability [1] [%] | cell viability [2] [%] | cell viability [3] [%] | cell viability [4] [%] | cell viability [5] [%] | cell viability [6] [%] | cell viability [7] [%] | cell viability [8] [%] | cell viability [9] [%] | cell viability [10] [%] | cell viability [11] [%] | cell viability [12] [%] | cell viability [13] [%] | cell viability [14] [%] | cell viability [15] [%] | cell viability [16] [%] | cell viability [17] [%] | cell viability [18] [%] | cell viability [19] [%] | cell viability [20] [%] | cell viability [21] [%] | cell viability [22] [%] | cell viability [23] [%] | cell viability [24] [%] | cell viability [25] [%] | cell viability [26] [%] | cell viability [27] [%] | cell viability [28] [%] | cell viability [29] [%] | cell viability [30] [%] | cell viability [31] [%] | cell viability [32] [%] | cell viability [33] [%] |
| --- | --- | --- | --- | --- | --- | --- | --- | --- | --- | --- | --- | --- | --- | --- | --- | --- | --- | --- | --- | --- | --- | --- | --- | --- | --- | --- | --- | --- | --- | --- | --- | --- | --- |
| COc1cc(OC)c(/C=C/[S+](=O)([O-])Cc2ccc(OC)c(NCC(=O)[O][Na])c2)c(OC)c1 | 120 | 113 | 119 | 118 | 126 | 60.3 | 43.7 | 47.7 | 44 | 42.5 | 34.4 | 110 | 104 | 102 | 121 | 109 | 99.6 | 27.6 | 23.9 | 27 | 26.7 | 24.9 | 111 | 128 | 111 | 117 | 122 | 37.5 | 31.7 | 26.1 | 26.2 | 23.6 | 24.1 |
| Cn1cnc2c1c(=O)[nH]c(=O)n2C | 112 | 102 | 102 | 119 | 108 | 110 | 116 | 96.4 | 105 | 78.3 | 5.56 | 99.2 | 110 | 96.2 | 92.6 | 97 | 96.5 | 103 | 88.1 | 99.3 | 91.6 | 7.98 | 101 | 91.7 | 99 | 114 | 109 | 104 | 100 | 102 | 96 | 90 | 9.87 |
| C[S+]([O-])(=O)C1=CC=C(C=C1)C/2=C(/C(=O)OC2)C3=CC=CC=C3 | – | – | – | – | – | – | – | – | – | – | – | 106 | 110 | 118 | 109 | 120 | 115 | 118 | 119 | 114 | 108 | 123 | 107 | 118 | 106 | 111 | 121 | 118 | 123 | 120 | 108 | 131 | 129 |
| CCOC(=O)C/1=C(O)/C(=O)N(CC2=CC=CC=C2)C1 | 95.4 | 113 | 129 | 124 | 110 | 106 | 103 | 122 | 114 | 103 | 95.6 | 102 | 113 | 98.3 | 99.2 | 98.6 | 99.5 | 111 | 95.9 | 95.7 | 95.7 | 103 | 102 | 118 | 110 | 109 | 110 | 115 | 105 | 111 | 91.2 | 103 | 95.1 |
| C=CC(=O)N1CCC[C@@H](n2nc(-c3ccc(Oc4ccccc4)cc3)c3c(N)ncnc32)C1 | – | – | – | – | – | – | – | – | – | – | – | 117 | 117 | 113 | 101 | 110 | 99.2 | 110 | 107 | 132 | 108 | 121 | 122 | 123 | 113 | 102 | 119 | 113 | 118 | 117 | 120 | 129 | 95.9 |
| O=C(O)C1=NC(C(=O)O)CC(/C=C/N2c3cc(O)c(OC4OC(CO)C(O)C(O)C4O)cc3CC2C(=O)O)=C1 (centres undefined) | 111 | 111 | 115 | 103 | 117 | 106 | 99.1 | 109 | 98.7 | 107 | 109 | 86.4 | 86.7 | 94.2 | 99.4 | 119 | 108 | 98.4 | 93.5 | 94 | 90.6 | 104 | 104 | 101 | 101 | 113 | 104 | 101 | 94.2 | 98.2 | 92.4 | 104 | 117 |
| CN1CCCN=C1/C=C/c1cccs1.O=C(O)c1cc2ccccc2c(Cc2c(O)c(C(=O)O)cc3ccccc23)c1O | 114 | 111 | 126 | 108 | 122 | 112 | 123 | 120 | 104 | 34.1 | 17.2 | 115 | 121 | 129 | 112 | 114 | 111 | 117 | 137 | 109 | 92.7 | 29.3 | 120 | 127 | 114 | 104 | 110 | 110 | 119 | 110 | 110 | 64.4 | 28.9 |
| CC(C)NC[C@@H](C(=O)N1CCN(c2ncnc3c2[C@H](C)C[C@H]3O)CC1)c1ccc(Cl)cc1 | 115 | 115 | 119 | 117 | 109 | 103 | 109 | 110 | 79 | 51.4 | 18.6 | 109 | 121 | 109 | 100 | 111 | 109 | 107 | 105 | 102 | 73.8 | 47.8 | 124 | 89.2 | 115 | 100 | 103 | 100 | 108 | 87.8 | 81.6 | 57.6 | 43.1 |
| CC(C)C(=O)Nc1ccc([N+](=O)[O-])c(C(F)(F)F)c1 | 118 | 120 | 118 | 128 | 140 | 137 | 44 | 39.3 | 39 | 42.3 | 41.3 | – | – | – | – | – | – | – | – | – | – | – | – | – | – | – | – | – | – | – | – | – | – |
| CN(C)[C@H]\1[C@@H]2C[C@H]3C(=C(O)\[C@]2(O)C(=O)\C(=C1O)C(N)=O)/C(=O)C4=C(O)C=CC=C4[C@@]3(C)O | 104 | 111 | 104 | 109 | 111 | 106 | 120 | 95.1 | 121 | 97.1 | 99.6 | 117 | 124 | 118 | 125 | 108 | 102 | 119 | 110 | 102 | 104 | 106 | 104 | 116 | 112 | 115 | 112 | 102 | 110 | 95 | 110 | 101 | 93.4 |
| COc1ccc(C(C)=O)c(O)c1 | 115 | 114 | 109 | 121 | 111 | 93.7 | 98 | 45.9 | 41.4 | 23.9 | 26.2 | 116 | 111 | 119 | 118 | 116 | 127 | 112 | 56.6 | 64.8 | 20.1 | 22.6 | 111 | 115 | 105 | 105 | 124 | 129 | 123 | 75.6 | 59.9 | 25.7 | 24.2 |
| Cn1c(CNc2ccc(C(=N)N)cc2)nc2cc(C(=O)N(CCC(=O)O)c3ccccn3)ccc21 | 109 | 106 | 103 | 109 | 103 | 95.5 | 116 | 119 | 125 | 124 | 111 | 92 | 92.8 | 94.6 | 95.5 | 99.3 | 98.7 | 97.7 | 109 | 97.3 | 103 | 111 | 94.5 | 91.3 | 95.9 | 93.8 | 113 | 99.6 | 94 | 104 | 96 | 110 | 116 |
| N=C(NCCCCCCNC(=N)NC(=N)Nc1ccc(Cl)cc1)NC(=N)Nc1ccc(Cl)cc1 | 82 | 88.2 | 100 | 90.4 | 106 | 111 | 105 | 113 | 89 | 87.6 | 56.5 | 75.4 | 92.9 | 79.1 | 96.3 | 96.1 | 85.5 | 93.2 | 88.5 | 91.1 | 87.4 | 30.9 | 79.5 | 88.9 | 90.6 | 90.5 | 105 | 103 | 101 | 105 | 100 | 85.6 | 41.5 |
| CC1(C)O[C@@H]2C[C@H]3[C@@H]4CCC5=CC(=O)C=C[C@]5(C)[C@H]4[C@@H](O)C[C@]3(C)[C@]2(C(=O)CO)O1 | 95 | 92.4 | 104 | 90.7 | 119 | 108 | 117 | 98.5 | 95.2 | 91.9 | 101 | 87.2 | 92.5 | 90.4 | 88.7 | 97.4 | 110 | 88.7 | 92.5 | 98.5 | 87.8 | 93.6 | 96.7 | 91.4 | 90.9 | 90.4 | 94.2 | 92.9 | 106 | 109 | 104 | 85.6 | 103 |
| Cc1c(NC(=O)OC[C@@H]2COCCN2)cn2ncnc(Nc3ccc4c(cnn4Cc4cccc(F)c4)c3)c12 | 67.5 | 75.4 | 80.3 | 90.6 | 93.2 | 102 | 92.8 | 76 | 88.7 | 60.5 | 18.6 | 97.2 | 86.6 | 85.2 | 93.5 | 91.6 | 89.5 | 89.9 | 92.7 | 84.6 | 74.9 | 40 | 77.6 | 80.4 | 86.3 | 85.8 | 88.3 | 86.5 | 89 | 91.7 | 89.4 | 80.3 | 37.5 |
| COc1ccc(C2CNC(=O)C2)cc1OC1CCCC1 (centres undefined) | 78.4 | 105 | 91.4 | 97.7 | 122 | 105 | 105 | 112 | 101 | 99.6 | 106 | 85.8 | 92.4 | 92 | 103 | 109 | 95.1 | 92.5 | 100 | 92.4 | 91.8 | 107 | 92.1 | 94.5 | 93.8 | 95.2 | 102 | 96.7 | 104 | 94.7 | 104 | 98.7 | 94.9 |
